Entries after “also recorded” stand apart in the source; their conditions may differ.
Columns and labels:
[1] = tested on: HEK293 uptake transporter overexpressing and control cells; test: Resazurin-based cytotoxicity assay
Procedure: The cells were plated on 96-well plates. Prior to the experiment the medium was removed, and cells were rinsed with 2×100 μL of the respective buffer for uptake transporter transfected and control cell lines.

BSEP = BSEP (Homo sapiens, UniProt O95342); test: Vesicular transport inhibition assay, BSEP (taurocholate)
Procedure: (§1) Vesicular transport assays were performed with inside-out membrane vesicles prepared from cells overexpressing human ABC (efflux) transporters. The transporters were expressed by SOLVO Biotechnology in mammalian (HEK293) cells. The mammalian cells were stably transfected with the ABC transporter of interest. The assays were conducted according to the actual SOLVO VT assay protocols (PR-ASY-VT-General Protocol for Vesicular Transport Inhibition Assays).
(§2) The membrane vesicle suspension was mixed with the ice-cold transport buffer, then the probe substrate solution was added. […] (for BCRP and MDR1). […] Reactions were quenched by the addition of 200 μL of ice-cold washing buffer and immediate filtration via glass fiber filters mounted to a 96-well plate (filter plate). The filters were washed (5×200 μL of ice-cold washing buffer), dried and the amount of substrate inside the filtered vesicles was determined by liquid scintillation counting.
(§3) Incubation with AMP provided background activity values for all data points.

BCRP = biological target: T1, BCRP (Homo sapiens, UniProt Q9UNQ0); test: Vesicular transport inhibition assay, BCRP (estrone-3-sulfate)
T1 sequence (Q9UNQ0 1-655): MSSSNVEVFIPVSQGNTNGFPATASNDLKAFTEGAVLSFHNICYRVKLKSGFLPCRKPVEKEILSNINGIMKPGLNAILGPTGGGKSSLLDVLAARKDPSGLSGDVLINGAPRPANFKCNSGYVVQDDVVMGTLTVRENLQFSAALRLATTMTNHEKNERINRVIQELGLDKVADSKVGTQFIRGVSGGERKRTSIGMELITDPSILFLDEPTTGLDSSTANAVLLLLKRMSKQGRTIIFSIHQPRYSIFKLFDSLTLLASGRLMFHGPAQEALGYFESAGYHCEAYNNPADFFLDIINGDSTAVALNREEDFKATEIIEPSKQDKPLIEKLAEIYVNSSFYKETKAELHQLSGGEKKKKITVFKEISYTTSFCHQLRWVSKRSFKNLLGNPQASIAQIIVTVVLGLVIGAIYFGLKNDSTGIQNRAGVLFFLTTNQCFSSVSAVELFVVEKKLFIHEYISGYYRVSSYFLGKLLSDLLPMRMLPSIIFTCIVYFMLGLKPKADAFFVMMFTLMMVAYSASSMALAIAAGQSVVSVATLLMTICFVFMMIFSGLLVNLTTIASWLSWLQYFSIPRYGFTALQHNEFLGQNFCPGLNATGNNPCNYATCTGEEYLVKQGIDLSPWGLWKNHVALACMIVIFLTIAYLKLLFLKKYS
Procedure: as §1, §2, §3

[2] = MATE1 assay, 5.00 μM, incubation 30 + 3 min
[3] = MATE1 assay, 10.00 μM, incubation 30 + 3 min
[4] = MATE1 assay, 20.00 μM, incubation 30 + 3 min
[5] = MATE1 assay, 30.00 μM, incubation 30 + 3 min
[6] = MATE2-K assay, 5.00 μM, incubation 30 + 1 min
[7] = MATE2-K assay, 10.00 μM, incubation 30 + 1 min
[8] = MATE2-K assay, 20.00 μM, incubation 30 + 1 min
[9] = MATE2-K assay, 30.00 μM, incubation 30 + 1 min
[10] = OAT1 assay, 5.00 μM, incubation 30 + 2 min
[11] = OAT1 assay, 10.00 μM, incubation 30 + 2 min
[12] = OAT1 assay, 20.00 μM, incubation 30 + 2 min
[13] = OAT1 assay, 30.00 μM, incubation 30 + 2 min
[14] = OAT3 assay, 5.00 μM, incubation 30 + 1 min
[15] = OAT3 assay, 10.00 μM, incubation 30 + 1 min
[16] = OAT3 assay, 20.00 μM, incubation 30 + 1 min
[17] = OAT3 assay, 30.00 μM, incubation 30 + 1 min
[18] = OATP1B1 assay, 5.00 μM, incubation 30 + 3 min
[19] = OATP1B1 assay, 10.00 μM, incubation 30 + 3 min
[20] = OATP1B1 assay, 20.00 μM, incubation 30 + 3 min
[21] = OATP1B1 assay, 30.00 μM, incubation 30 + 3 min
[22] = OATP1B3 assay, 5.00 μM, incubation 30 + 2 min
[23] = OATP1B3 assay, 10.00 μM, incubation 30 + 2 min
[24] = OATP1B3 assay, 20.00 μM, incubation 30 + 2 min
[25] = OATP1B3 assay, 30.00 μM, incubation 30 + 2 min
[26] = OCT1 assay, 5.00 μM, incubation 30 + 3 min
[27] = OCT1 assay, 10.00 μM, incubation 30 + 3 min
[28] = OCT1 assay, 20.00 μM, incubation 30 + 3 min
[29] = OCT1 assay, 30.00 μM, incubation 30 + 3 min
[30] = OCT2 assay, 5.00 μM, incubation 30 + 1 min
[31] = OCT2 assay, 10.00 μM, incubation 30 + 1 min
[32] = OCT2 assay, 20.00 μM, incubation 30 + 1 min
[33] = OCT2 assay, 30.00 μM, incubation 30 + 1 min

Chain of BSEP (O95342 whole entry): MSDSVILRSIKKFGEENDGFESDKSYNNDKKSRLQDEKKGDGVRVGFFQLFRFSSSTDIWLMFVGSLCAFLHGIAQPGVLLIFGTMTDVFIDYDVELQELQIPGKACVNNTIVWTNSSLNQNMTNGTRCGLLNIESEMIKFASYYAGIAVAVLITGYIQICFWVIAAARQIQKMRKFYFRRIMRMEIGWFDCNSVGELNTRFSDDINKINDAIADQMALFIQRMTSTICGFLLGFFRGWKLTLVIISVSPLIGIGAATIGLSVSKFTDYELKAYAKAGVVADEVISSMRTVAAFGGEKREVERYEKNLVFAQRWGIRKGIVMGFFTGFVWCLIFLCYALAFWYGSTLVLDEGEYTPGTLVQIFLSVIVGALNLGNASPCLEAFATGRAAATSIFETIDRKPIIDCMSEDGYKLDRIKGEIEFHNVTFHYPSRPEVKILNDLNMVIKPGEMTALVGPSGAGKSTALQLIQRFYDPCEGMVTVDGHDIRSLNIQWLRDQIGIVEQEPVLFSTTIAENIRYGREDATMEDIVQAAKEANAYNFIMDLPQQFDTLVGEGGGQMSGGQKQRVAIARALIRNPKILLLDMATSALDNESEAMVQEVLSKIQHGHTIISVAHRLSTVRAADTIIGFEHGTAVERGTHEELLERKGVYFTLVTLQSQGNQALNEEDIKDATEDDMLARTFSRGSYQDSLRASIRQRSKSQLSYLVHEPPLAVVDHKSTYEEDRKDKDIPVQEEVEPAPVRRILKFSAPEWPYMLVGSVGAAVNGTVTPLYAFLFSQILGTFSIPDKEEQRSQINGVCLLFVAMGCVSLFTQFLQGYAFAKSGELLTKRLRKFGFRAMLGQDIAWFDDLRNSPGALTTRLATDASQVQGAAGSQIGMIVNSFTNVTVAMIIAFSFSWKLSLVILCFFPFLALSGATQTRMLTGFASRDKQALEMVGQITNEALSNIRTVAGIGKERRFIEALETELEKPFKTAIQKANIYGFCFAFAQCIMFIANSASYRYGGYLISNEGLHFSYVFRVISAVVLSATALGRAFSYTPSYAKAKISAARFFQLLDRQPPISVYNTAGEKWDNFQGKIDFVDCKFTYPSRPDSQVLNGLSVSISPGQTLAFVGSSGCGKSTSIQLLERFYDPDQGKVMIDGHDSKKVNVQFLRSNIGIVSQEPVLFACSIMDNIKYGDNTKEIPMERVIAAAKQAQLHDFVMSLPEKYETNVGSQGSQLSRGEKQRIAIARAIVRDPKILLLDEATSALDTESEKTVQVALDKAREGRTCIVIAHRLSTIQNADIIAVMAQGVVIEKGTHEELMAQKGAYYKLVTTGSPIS

## OC1(c2ccc(Cl)cc2)c2ccccc2C2=NCCN21 (stereo not drawn) [Compound A, 5-(4-chlorophenyl)-2,3-dihydroimidazo[1,2-b]isoindol-5-ol, reference compound]
[1]; HEK293-MATE1-LV, -MATE2-K-LV, -OAT1-LV, -OAT3-LV, -OATP1B1-LV, -OATP1B3-LV, -OCT1-LV, -OCT2-LV and control cells
  Cell viability (cytotoxic effect): did not reduce the cell viability
[1]; [2]
  Relative cell viability, control cells: 99.21 ± 1.16 % of control
  Relative cell viability, transfected cells: 100.44 ± 1.23 % of control
[1]; [3]
  Relative cell viability, control cells: 99.15 ± 1.14 % of control
  Relative cell viability, transfected cells: 100.94 ± 1.13 % of control
[1]; [4]
  Relative cell viability, control cells: 99.30 ± 1.01 % of control
  Relative cell viability, transfected cells: 101.82 ± 1.13 % of control
[1]; [5]
  Relative cell viability, control cells: 99.32 ± 1.20 % of control
  Relative cell viability, transfected cells: 100.38 ± 1.18 % of control
[1]; [6]
  Relative cell viability, control cells: 98.30 ± 0.72 % of control
  Relative cell viability, transfected cells: 100.17 ± 1.24 % of control
[1]; [7]
  Relative cell viability, control cells: 101.55 ± 0.74 % of control
  Relative cell viability, transfected cells: 99.35 ± 0.57 % of control
[1]; [8]
  Relative cell viability, control cells: 99.74 ± 0.77 % of control
  Relative cell viability, transfected cells: 98.93 ± 1.00 % of control
[1]; [9]
  Relative cell viability, control cells: 99.57 ± 0.77 % of control
  Relative cell viability, transfected cells: 95.00 ± 1.36 % of control
[1]; [10]
  Relative cell viability, control cells: 99.60 ± 2.60 % of control
  Relative cell viability, transfected cells: 101.06 ± 0.56 % of control
[1]; [11]
  Relative cell viability, control cells: 102.26 ± 1.66 % of control
  Relative cell viability, transfected cells: 100.28 ± 0.26 % of control
[1]; [12]
  Relative cell viability, control cells: 103.10 ± 2.01 % of control
  Relative cell viability, transfected cells: 98.34 ± 0.33 % of control
[1]; [13]
  Relative cell viability, control cells: 102.66 ± 2.43 % of control
  Relative cell viability, transfected cells: 93.28 ± 2.26 % of control
[1]; [14]
  Relative cell viability, control cells: 98.41 ± 1.36 % of control
  Relative cell viability, transfected cells: 97.17 ± 0.40 % of control
[1]; [15]
  Relative cell viability, control cells: 96.14 ± 2.42 % of control
  Relative cell viability, transfected cells: 98.73 ± 0.68 % of control
[1]; [16]
  Relative cell viability, control cells: 95.85 ± 2.05 % of control
  Relative cell viability, transfected cells: 97.97 ± 0.89 % of control
[1]; [17]
  Relative cell viability, control cells: 98.11 ± 1.29 % of control
  Relative cell viability, transfected cells: 99.16 ± 0.66 % of control
[1]; [18]
  Relative cell viability, control cells: 95.83 ± 0.85 % of control
  Relative cell viability, transfected cells: 101.07 ± 0.61 % of control
[1]; [19]
  Relative cell viability, control cells: 93.21 ± 2.18 % of control
  Relative cell viability, transfected cells: 102.28 ± 0.69 % of control
[1]; [20]
  Relative cell viability, control cells: 96.00 ± 0.81 % of control
  Relative cell viability, transfected cells: 99.79 ± 0.88 % of control
[1]; [21]
  Relative cell viability, control cells: 96.60 ± 2.23 % of control
  Relative cell viability, transfected cells: 98.92 ± 1.07 % of control
[1]; [22]
  Relative cell viability, control cells: 96.08 ± 0.72 % of control
  Relative cell viability, transfected cells: 99.30 ± 0.80 % of control
[1]; [23]
  Relative cell viability, control cells: 93.50 ± 0.99 % of control
  Relative cell viability, transfected cells: 99.16 ± 1.10 % of control
[1]; [24]
  Relative cell viability, control cells: 98.24 ± 0.33 % of control
  Relative cell viability, transfected cells: 99.23 ± 0.43 % of control
[1]; [25]
  Relative cell viability, control cells: 100.55 ± 0.31 % of control
  Relative cell viability, transfected cells: 99.58 ± 0.58 % of control
[1]; [26]
  Relative cell viability, control cells: 95.85 ± 5.15 % of control
  Relative cell viability, transfected cells: 105.13 ± 8.07 % of control
[1]; [27]
  Relative cell viability, control cells: 99.88 ± 5.10 % of control
  Relative cell viability, transfected cells: 106.01 ± 8.03 % of control
[1]; [28]
  Relative cell viability, control cells: 98.58 ± 5.65 % of control
  Relative cell viability, transfected cells: 105.82 ± 8.04 % of control
[1]; [29]
  Relative cell viability, control cells: 102.27 ± 5.38 % of control
  Relative cell viability, transfected cells: 109.22 ± 8.33 % of control
[1]; [30]
  Relative cell viability, control cells: 95.32 ± 3.75 % of control
  Relative cell viability, transfected cells: 96.41 ± 1.41 % of control
[1]; [31]
  Relative cell viability, control cells: 93.96 ± 4.78 % of control
  Relative cell viability, transfected cells: 97.59 ± 1.08 % of control
[1]; [32]
  Relative cell viability, control cells: 96.81 ± 3.07 % of control
  Relative cell viability, transfected cells: 98.80 ± 0.86 % of control
[1]; [33]
  Relative cell viability, control cells: 96.68 ± 2.77 % of control
  Relative cell viability, transfected cells: 98.11 ± 0.97 % of control
[1]; all uptake transporter overexpressing and control cells
  decrease of the relative cell viability compared to solvent (DMSO): less than 20%
BSEP; 2-concentration assay, up to 100 μM (Compound A up to 35 μM)
  maximum inhibition of BSEP-mediated taurocholate accumulation: did not inhibit; also recorded: not an in vitro inhibitor
BSEP; BSEP, inside-out membrane vesicles, TC (0.2 μM), NIO: No inhibition observed
  Maximum % inhibition: NIO
BSEP; human
  inhibition at 35 μM: 2%
BCRP; 5.00 μM nominal
  Relative ATP-dependent transport: 100.28 ± 5.84 % of control
BCRP; 50.00 μM nominal
  Relative ATP-dependent transport: 97.83 ± 3.82 % of control
BCRP; 2-concentration assay, up to 100 μM (Compound A up to 50 μM)
  maximum inhibition of BCRP-mediated E3S accumulation: did not inhibit; also recorded: not an in vitro inhibitor
BCRP; BCRP, inside-out membrane vesicles, E3S (1 μM), NIO: No inhibition observed
  Maximum % inhibition: NIO
BCRP; human
  inhibition at 5 μM: 0%
  inhibition at 50 μM: 2%
